One series has as its system trachea. Put plainly: Passive Schultz-Dale reaction (broncho-dilatory effect) on isolated tracheal strips. Particulars: Cavia porcellus; 50% relaxation of antigen (EWA, 1 µg/ml)-contracted tracheal strips of passively sensitized guinea pigs. On the procedure: Guinea pigs were passively sensitized as follows. Hartley male guinea pigs weighing 350 to 500 g were injected intraperitoneally with rabbit anti-egg albumin (EWA) serum prepared by the method of Koda et al. [Folia pharmacol., Japon 66, 237, (1970)]. After 24 hours, the guinea pigs were stunned and exsanguinated, and then trachea was excised. The zig-zag strips of the trachea were prepared by the method of Emmerson and Mackay [J. Pharm. Pharmacol., 31, 798, (1979)]. The strips were suspended in Krebs-Henseleit solution at 37°C under aeration of a mixed gas of 95% oxygen and 5% carbon dioxide, and incubated for one hour. Antigen (EWA) was then introduced in the solution (final concentration; 1 µg/ml), and the contraction was measured by isotonictransducer (TD-112s, made by Nihon Kohden K.K., Japan) and recorded on a recorder (Type 3066, made by Yokogawa-Hokushin Denki, K.K. Japan). After the contraction curves reached plateau the compounds were successively added in order to get cumulative concentration-relaxation curves. Concentration of 50% relaxation rate (IC50) was calculated from the regression line, which was obtained from cumulative concentration-relaxation curves.

The next series concerns male dd-mice. Put plainly: Acute toxicity. In kind it is in vivo. Particulars: Minimum lethal dose, oral, mortality observed for seven days. The protocol: The compounds were orally administrated to male dd-mice weighing 20 ± 1 g. Minimum lethal dose (MLD) was determined by observing the mortality for seven days after the administration.
In a further series the test system is Wistar male rats. Put plainly: Diuretic activity. In kind it is in vivo. Particulars: Rattus norvegicus, po, 25 mg/kg orally, urine taken for 6 hours. On the procedure: Wistar male rats weighing 150 to 300 g were used after fasting for 18 hours. […] The test was performed using 3 groups per test compound, and each group consists of 3 animals. The urine was metered by a measuring cylinder and electrolytes (Na^+ and K^+) in the urine were analyzed by flame photometer (model […]: Hitachi Ltd.). Parameters in Table 3 are represented by relative value for control.

Where [1] appears, read: relative value for control (1.00), read-out: Na^+/K^+.
Where [2] appears, read: relative value for control (100), read-out: Excretion of K^+.
Where [3] appears, read: relative value for control (100), read-out: Excretion of Na^+.
[4] abbreviates: relative value for control (100), read-out: Urine volume.

Read-outs that look alike come from different tables or passages of the source.

With `CCCn1c(=O)n2c(-c3ccccc3)nnc2c2c1ncn2C` [Compound 1, 6,9-Dihydro-9-methyl-3-phenyl-6-n-propyl-5H-1,2,4-triazolo-[3,4-i]purin-5-one], in the series with trachea, the IC50 (commonly the midpoint of a concentration-inhibition curve) stood at 4.1 µM. In the series with male dd-mice, this molecule had an MLD of 100 mg/kg. Also, the response vs control in vivo at 25 mg/kg in the series on Wistar male rats (setting [1]) stood at 318%; in the series on Wistar male rats (setting [2]) it was 87%; in the series with Wistar male rats (setting [3]), 226%; in the series on Wistar male rats (setting [4]), 255%.

In the case of `CCCn1c(=O)n2c(-c3cccs3)nnc2c2c1ncn2C` [Compound 2, 6,9-Dihydro-9-methyl-6-n-propyl-3-(2-thienyl)-5H-1,2,4-triazolo[3,4-i]purin-5-one], in the series on trachea, the IC50 worked out at 0.4 µM. In the series with male dd-mice, this molecule returned an MLD of 300 mg/kg.

As to `CCCn1c(=O)n2c(-c3cccc(OC)c3)nnc2c2c1ncn2C` [Compound 8, 6,9-Dihydro-3-(3-methoxyphenyl)-9-methyl-6-n-propyl-5H-1,2,4-triazolo[3,4-i]purin-5-one], the half-maximal inhibitory concentration (IC50) with trachea stood at 5.6 µM. In addition, in the series with male dd-mice, the MLD is greater than 300 mg/kg. The response vs control in vivo at 25 mg/kg worked out at 144% with Wistar male rats (setting [1]), 122% in the series on Wistar male rats (setting [2]), 175% with Wistar male rats (setting [3]) and 170% in the series on Wistar male rats (setting [4]).

Take `CCCn1c(=O)n2c(-c3ccc(OC)cc3)nnc2c2c1ncn2C` [Compound 9, 6,9-Dihydro-3-(4-methoxyphenyl)-9-methyl-6-n-propyl-5H-1,2,4-triazolo[3,4-i]purin-5-one]: the IC50 in the series on trachea amounted to 7.8 µM. In the series on male dd-mice, this molecule showed an MLD greater than 300 mg/kg. For the same molecule, the response vs control in vivo at 25 mg/kg amounted to 157% with Wistar male rats (setting [1]), 139% with Wistar male rats (setting [2]), 219% in the series with Wistar male rats (setting [3]) and 253% in the series on Wistar male rats (setting [4]).

For `CCCn1c(=O)n2c(-c3ccccc3Cl)nnc2c2c1ncn2C` [Compound 10, 3-(2-Chlorophenyl)-6,9-dihydro-9-methyl-6-n-propyl-5H-1,2,4-triazolo[3,4-i]purin-5-one], in the series with trachea, the IC50 was found to be 18 µM. Further, the MLD in the series on male dd-mice was 300 mg/kg. The response vs control in vivo at 25 mg/kg with Wistar male rats (setting [1]) worked out at 124%; with Wistar male rats (setting [2]) it was 109%; in the series with Wistar male rats (setting [3]), 134%; with Wistar male rats (setting [4]) it was 162%.

As for `CCCn1c(=O)n2c(-c3ccc(C)cc3)nnc2c2c1ncn2C` [Compound 14, 6,9-Dihydro-9-methyl-3-(4-methylphenyl)-6-n-propyl-5H-1,2,4-triazolo[3,4-i]purin-5-one], in the series with trachea, the IC50 was found to be 45 µM. The same molecule returned an MLD with male dd-mice greater than 300 mg/kg.

Molecule `Cn1cnc2c1c1nnc(-c3ccccc3)n1c(=O)n2-c1ccccc1` [Compound 29, 6,9-Dihydro-3,6-diphenyl-9-methyl-5H-1,2,4-triazolo[3,4-i]-purin-5-one] returned an MLD with male dd-mice greater than 300 mg/kg. In addition, the response vs control in vivo at 25 mg/kg with Wistar male rats (setting [1]) came to 141%; in the series on Wistar male rats (setting [2]) it was 110%; in the series on Wistar male rats (setting [3]), 155%; in the series with Wistar male rats (setting [4]), 170%.

With `CCCn1c(=O)n2c(-c3ccncc3)nnc2c2c1ncn2Cc1ccccc1` [Compound 39, 9-Benzyl-6,9-dihydro-6-n-propyl-3-(4-pyridyl)-5H-1,2,4-triazolo[3,4-i]purin-5-one], the MLD in the series on male dd-mice is recorded as greater than 300 mg/kg. Also, the response vs control in vivo at 25 mg/kg was found to be 127% in the series with Wistar male rats (setting [1]), 145% in the series with Wistar male rats (setting [2]), 184% in the series on Wistar male rats (setting [3]) and 185% with Wistar male rats (setting [4]).

In turn, `CCCn1cnc2c1c1nnc(-c3ccncc3)n1c(=O)n2CCC` [Compound 40Sa] yielded an MLD in the series on male dd-mice of 100 mg/kg. Further, the response vs control in vivo at 25 mg/kg came to 97% in the series with Wistar male rats (setting [1]), 136% in the series with Wistar male rats (setting [2]), 132% in the series with Wistar male rats (setting [3]) and 155% in the series with Wistar male rats (setting [4]).

The record behind these values is patent publication EP0417790B1, “S-triazolo[3,4-i]purine derivatives” (Kyowa Hakko Kogyo Co., Ltd., priority 1989, dated 1991).
